Experimental data published in patent US10449156B2, “Controlled release system including a gas or volatile encapsulated in a polymeric support and a matrix system, a method of preparing the system, and their use” (priority 2014, dated 2019).

Legend:
[1] = test system: Botrytis cinerea spores; assay: Botrytis cinerea spore (conidia) germination assay; type: cell-based; conditions: pure PEA; 14 hours at 4° C.; absorbance 570 nm
Procedure: In this point, the PEA volatile compound effect was tested in B.c. spores germination. The assay consisted in inoculate B.c. spores in 100 μL of malt yeast nutritive media (ML, 0.3% malt and 0.2% yeast extract), using 40 μL of a B.c. spore suspension with a 10^5 spores/mL concentration. Resuspended spores in ML media were transferred to sterile multiwall plates (140 μL/well) and then these plates were put in a hermetic and sealed container during a definite time, in dark and at 4° C. The necessary time to detect maximum germination was experimentally determined by conducting a germination kinetic assay for each B.c. strain. Measurements were done every 2 hours up until 16 hours, thus finding the maximum germination between 14 and 16 hours. The methodology used in the laboratory consisted in a spore fixation/staining process in each well, using trichloroacetic acid and sulphododamyne B, that allowed for a direct correlation between the obtained absorbance values (at 570 nm) with germinated spore number. The first experimental group was assayed without volatile compounds and was used as control (n=4), the experiment was done in sealed hermetic containers at 4° C. for 14 hours (100% of spore germination).

[2] = test system: Botrytis cinerea; assay: Botrytis cinerea radial growth bioassay with volatile compounds, no direct contact; type: cell-based; conditions: for effect on B.c. radial growth: pure compound 6, 30 and 61 μL, four strains, PDA
Procedure: PHBV and PEA microparticle synthesis was done by double emulsion/evaporation. Experimentally, 15 mg of PEA were added to 50 mg/mL PHBV solution in dichloromethane, and then 30 μL of distilled water. This mixture was emulsified with a homogenizer at 35,000 rpm during 30 seconds. To this emulsion, a 5% w/v polyvinyl alcohol was added, and it was homogenized at 35.000 rpm for 30 seconds. The result of this double emulsion was put in an orbital shaker for 12 hours at 100 rpm. Once the solvent evaporated, the microparticles were isolated by centrifugation, washed with distilled water and lyophilized. Subsequently, the assays described below were done.
The experimental model consisted in testing in vitro both the pure and microencapsulated phenylethylalcohol (PEA) volatile compound effect in B.c. The reporting parameter was radial growth and the volatile compound doses were determined with in vitro assays (bioassays). To do this, four different Botrytis strains were exposed to the pure compound, but without direct contact between compound and microorganism.
Bioassays were done in hermetic containers during 6 days at 4° C. (simulating storage conditions). It was previously determined that, for all the strains in study, they were able to cover almost completely the maximum container area (33 mm diameter), in 6 days. The hermetic container was assembled in such a way that there is no physical contact between the evaluated compounds and B.c, in any circumstances.
Radial growth was quantified in three independent experimental groups, which were assayed using potato dextrose agar (PDA) as nutritive support and, after the established culture conditions, initial inoculum growth diameter was determined as 7 mm (disk with actively growing B.c. using PDA as support). The first group was assayed in the container, in absence of a volatile compound and was used as control group (n=4). The second group was assayed challenging the B.c. inoculum with different PEA quantities (6, 30 y 61 μL), separately, with the same culture conditions (n=4). Finally, the third group was assayed like the second group, but with PHBV microencapsulated PEA in defined concentrations (n=2).

## OCCc1ccccc1 [PEA, phenylethylalcohol]
[1]
  effect on Botrytis conidia germination: does not inhibit Botrytis conidia germination in the same way that it inhibited micellium growth
[2]; 30 and 61 μL doses, all strains, 6 days at 4° C.
  effect on B.c. radial growth, statistics (ANOVA, TUKEY, p<0.05): statistically significant effect in all of the strains
[2]; doses higher than 61 μL, 6 days
  B.c. growth at higher doses: not a measurable growth after 6 days
[2]; 6 days at 4° C.
  effect on B.c. radial growth: has an inhibiting effect in all the assayed B.c. strains

## CCCCCC1CCCC(=O)O1 (stereo not drawn) [d-Lac, delta-decalactone]
[2]; 6 days at 4° C.
  effect on B.c. radial growth: does not present a statistically significative effect
